Columns and labels:
[1] = system: MSTO-211H cells; test: Cellular growth of MSTO-211H cells; type: cell-based, human; settings: 10^-6 M; cells counted after 24, 48 and 72 h
Method: (§1) The human mesothelioma cell line, MSTO-211H, was selected because of its intense proliferative activity and its aggressive profile (ATCC CRL-2081, 211H). The MSTO-211H cells were grown in RPMI-1640 medium (Invitrogen, USA) supplemented with 10% fetal calf serum (PAATM) and 2 mM glutamine (Gibco®). Cells were stored at 37° in 5% CO2 atmosphere.
Cellular growth was performed using 6 well-tissue-culture dishes. 15×10^4 MSTO-211H cells were seeded, after 24 h cells were washed twice with PBS, and complete media containing either 10^−6M SR 48692, a NTSR1 antagonist, or 10^−4M de DMSO was added to the cells. After 24, 48, and 72 h of growth, cells were trypsinized and counted with a cells coulter (Z1 Coulter® Particle Counter, Beckman Coulter™).

[2] = system: MSTO-211H cells; test: Collagen invasion assay (type I collagen); type: cell-based, human; settings: 5x10^-6 M SR48692 or 1:50 anti-NTS antibody; 48 hours; controls 13% (untreated), 11% (DMSO)
Method: as §1
Collagen invasion assay was performed by using tissue culture inserts composed of a 8 μm porous polycarbonate membrane, placed as inner chamber in 24 well-tissue-culture dishes. This membrane was coated with […] of 2 mg/ml type I collagen diluted in RPMI-1640 medium (Collagen type I, rat tail, Upstate). The bottom chamber was filled with 500 μL RPMI-1640 medium supplemented with 10% fetal calf serum and 2 mM glutamine. 10^3 MSTO-211H cells were seeded on the top of the inner chamber. Cells were treated with 5×10^−6 M of NTSR1 antagonist SR48692 or with 1:50 solution of anti-NTS rabbit antibody (NA1230, Tebu-Bio). Cells were placed for 48 hours at 37° C. in 5% CO2 atmosphere. After incubation, non invasive cells on the upper surface of the collagen matrix were wiped off with cotton swabs. Filter membranes were fixed with 5% glutaraldehyde and remaining cells stained with 0.5% toluidine blue. Quantitation of invasive cells was carried out at the 400× magnification by using the software CELINA.

[3] = system: MSTO-211H cells; test: Wound healing assay (cell migration); type: cell-based, human; settings: 10^-6 M; at 24 and 30 hours; 0.5% FCS; controls 27% (untreated), 30% (DMSO)
Method: as §1
In order to evaluate the impact of the neurotensinergic system on cell migration, a wound healing assay was performed. 1.75×10^6 MSTO-211H cells were plated per well in 6 well dishes containing the medium in order to reach confluence. After 24 hours cells were serum-starved and scarification was performed in a Moscona buffer with a 20 μl pipette tip. Cells were maintained in culture with low serum medium (0.5% FCS) and treated with 10^−6 M SR48692. Control cells were exposed or not to the SR48692 solvent, DMSO. Pictures were taken at the beginning and 24 and 30 hours later with a photonic microscope. The “remaining gap” was calculated as percentage between wound size at 30 hours and initial wound size.

[4] = patients with MPM, randomized study, two arms; cited from earlier work

COc1cccc(OC)c1-c1cc(C(=O)NC2(C(=O)O)C3CC4CC(C3)CC2C4)nn1-c1ccnc2cc(Cl)ccc12 (stereo not shown) [SR48692]
effect on cell growth [1]: no effect | cells that invaded the type I collagen [2]: 4% | residual gap (% of original gap) [3]: 48%

N.N.[Cl][Pt][Cl] [cisplatin]
median survival [4]: 9.3 months

From patent US8771691B2, “Methods for the treatment and the prognostic assessment of malignant pleural mesothelioma” (Inserm (Institut National de la Sante et de la Recherche …, priority 2008, dated 2014)
